Drawing on patent publication US20240238424A1, “HETEROBIFUNCTIONAL COMPOUNDS AND METHODS OF TREATING DISEASE” (Halda Therapeutics OpCo, Inc., priority 2021, published 2024), this text covers GI50 and DC50 for 21 compounds.

Bounds are passed on as bounds.

Assay [1] relates to HeLa KRas G12C cells. As to the kind of experiment: Cellular growth inhibition assay (CTG), HeLa KRas G12C cells. The assay is classed as cell-based. As to conditions: Homo sapiens, CellTiter-Glo 2.0, day-5. The protocol:
Cells were seeded in Poly-D-lysine-treated 384-well white plates, with 25 μL cell suspension at 250 cells/well for continuous treatments, and 1000 cells/well for washout treatments. Plates were spun at 300×g for 3 minutes, and cells were cultured at 37° C. with 5% CO2 in a humidified tissue culture incubator.
After 24 hours, the test compounds were diluted with cell culture medium in 96 deep well plates. DMSO was used as a negative control. A 25 μL aliquot of compound-containing medium was added in each well, at a final top concentration of 10 μM or 30 μM test compound, with 3-fold dilutions. For washout assays, after 4 hours, cell medium with compound was removed, and the cells were washed with 75p L fresh medium. Plates were then spun at 300×g for 3 minutes and replaced with 50 μL fresh medium in each well. Plates were then spun at 300×g for 3 minutes again and cultured at 37° C. with 5% CO2.
At day-0 and day-5 of compound treatments, cell viability was quantified with CellTiter-Glo 2.0 (Promega). After equilibrating cell plates at room temperature for 30 minutes, 25 μL CellTiter-Glo 2.0 reagent was dispensed into each well (on top of 50 μL of cell culture). Plates were mixed on a shaker for 2 minutes at 500 rpm, followed by a 10-minute incubation at room temperature. Luminescence readings were measured with an EnVision Plate Reader. Data was normalized to DMSO treated day-0 cell wells. A four-parameter non-linear regression curve fit was applied to dose-response data in Prism to determine the half maximal growth inhibitory concentration (GI50) of each compound.
(In general: In ATP-based viability assays light output follows the ATP content of the culture.)

Assay [2] addresses T1, GSPT1 (Homo sapiens, UniProt P15170+Q96SW2).
T1 construct: host or cells: HEK293 LgBiT cell line
As to the kind of experiment: GSPT1 HiBit degradation assay. The class given is cell-based. As to conditions: HEK293 LgBiT cells expressing GSPT1_HiBiT, luminescence after 6 hours. In outline:
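HEK293 cells stably expressing LgBiT and GSPT1-HiBiT, seeded 18-24 h before dosing, were treated with titrated compound plus endurazine (0.5× final) at 37 °C. Luminescence loss after 6 h reflects GSPT1 degradation; DC50 is the concentration giving 50% degradation.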
On the technique in general: The HiBiT peptide binds its large partner to form an active luciferase.

T1 sequence (P15170 whole entry): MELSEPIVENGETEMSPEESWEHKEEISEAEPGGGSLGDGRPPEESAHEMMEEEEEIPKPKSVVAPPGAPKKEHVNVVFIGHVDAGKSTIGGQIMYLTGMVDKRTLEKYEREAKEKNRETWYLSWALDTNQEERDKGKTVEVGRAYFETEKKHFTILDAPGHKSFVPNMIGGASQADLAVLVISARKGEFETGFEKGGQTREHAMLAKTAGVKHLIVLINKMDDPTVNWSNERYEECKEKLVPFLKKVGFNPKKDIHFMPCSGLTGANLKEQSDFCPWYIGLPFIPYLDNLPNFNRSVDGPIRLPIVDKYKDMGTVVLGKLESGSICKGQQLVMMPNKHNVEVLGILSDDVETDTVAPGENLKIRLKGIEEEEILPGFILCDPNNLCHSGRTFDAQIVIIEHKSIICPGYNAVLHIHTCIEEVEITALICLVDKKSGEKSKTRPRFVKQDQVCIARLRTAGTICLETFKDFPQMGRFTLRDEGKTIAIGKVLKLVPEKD
T1 sequence (Q96SW2 whole entry): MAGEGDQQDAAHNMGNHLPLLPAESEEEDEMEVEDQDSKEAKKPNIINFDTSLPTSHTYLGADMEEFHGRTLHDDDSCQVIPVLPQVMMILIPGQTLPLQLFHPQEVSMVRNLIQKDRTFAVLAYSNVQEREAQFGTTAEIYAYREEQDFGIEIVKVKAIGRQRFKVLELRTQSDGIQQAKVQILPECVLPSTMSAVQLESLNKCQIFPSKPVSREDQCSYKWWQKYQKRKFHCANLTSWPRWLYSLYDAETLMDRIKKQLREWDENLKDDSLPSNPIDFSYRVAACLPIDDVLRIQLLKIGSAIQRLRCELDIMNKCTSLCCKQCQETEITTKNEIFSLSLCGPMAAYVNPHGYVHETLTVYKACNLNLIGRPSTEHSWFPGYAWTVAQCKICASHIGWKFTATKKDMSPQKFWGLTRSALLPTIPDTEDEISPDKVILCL
T1 sequence (Q16531 whole entry partner): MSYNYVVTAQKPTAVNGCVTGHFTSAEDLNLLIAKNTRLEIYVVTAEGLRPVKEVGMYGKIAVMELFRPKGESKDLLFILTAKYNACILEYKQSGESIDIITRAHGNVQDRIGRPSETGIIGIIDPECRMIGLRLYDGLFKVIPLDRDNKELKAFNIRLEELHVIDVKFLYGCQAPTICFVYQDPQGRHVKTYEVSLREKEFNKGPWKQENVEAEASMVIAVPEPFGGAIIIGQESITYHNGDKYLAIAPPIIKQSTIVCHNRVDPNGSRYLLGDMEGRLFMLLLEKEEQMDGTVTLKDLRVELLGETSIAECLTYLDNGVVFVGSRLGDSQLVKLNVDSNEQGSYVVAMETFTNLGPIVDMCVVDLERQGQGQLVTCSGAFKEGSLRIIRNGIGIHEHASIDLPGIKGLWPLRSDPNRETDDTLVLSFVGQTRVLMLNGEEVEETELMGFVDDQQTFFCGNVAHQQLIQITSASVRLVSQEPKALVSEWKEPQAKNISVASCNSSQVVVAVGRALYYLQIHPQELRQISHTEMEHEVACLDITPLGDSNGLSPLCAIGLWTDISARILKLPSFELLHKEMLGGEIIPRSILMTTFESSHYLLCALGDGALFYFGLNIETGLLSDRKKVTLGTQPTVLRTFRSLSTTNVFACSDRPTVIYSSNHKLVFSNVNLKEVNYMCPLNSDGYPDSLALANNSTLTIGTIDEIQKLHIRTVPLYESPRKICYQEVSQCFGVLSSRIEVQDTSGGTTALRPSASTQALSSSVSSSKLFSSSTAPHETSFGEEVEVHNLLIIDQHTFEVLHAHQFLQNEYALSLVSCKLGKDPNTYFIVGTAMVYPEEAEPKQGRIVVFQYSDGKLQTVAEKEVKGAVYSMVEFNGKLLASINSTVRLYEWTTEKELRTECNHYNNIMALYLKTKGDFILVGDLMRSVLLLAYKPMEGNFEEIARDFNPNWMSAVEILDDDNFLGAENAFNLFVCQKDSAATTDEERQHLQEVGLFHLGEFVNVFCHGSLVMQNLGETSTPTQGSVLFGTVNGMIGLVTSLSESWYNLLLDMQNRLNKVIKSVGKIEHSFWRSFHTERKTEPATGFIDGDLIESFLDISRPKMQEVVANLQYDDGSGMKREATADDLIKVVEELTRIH

In general, GI50 refers to the concentration that inhibits growth by half. A higher GI50 goes with less potent growth inhibition. One may read the DC50 as the concentration giving 50% degradation. A lower DC50 goes with degradation at low concentration. Regarding `C=CC(=O)N1CCN(c2nc(NCCOCCOCCOCCOCCOCCOCCOCCOCCOc3cc(Cl)cc(NC(=O)NCc4ccc5c(c4)CN(C4CCC(=O)NC4=O)C5=O)c3)nc3c(F)c(-c4cc(O)cc5ccccc45)c(Cl)cc23)CC1` (stereo not drawn) [Compound I-13, 1-[3-chloro-5-[2-[2-[2-[2-[2-[2-[2-[2-[2-[[6-chloro-8-fluoro-7-(3-hydroxy-1-naphthyl)-4-(4-prop-2-enoylpiperazin-1-yl)quinazolin-2-yl]amino]ethoxy]ethoxy]ethoxy]ethoxy]ethoxy]ethoxy]ethoxy]ethoxy]ethoxy]phenyl]-3-[[2-(2,6-dioxo-3-piperidyl)-1-oxo-isoindolin-5-yl]methyl]urea], the GI50 in assay [1] was above 10 µM. The compound further registered a DC50 in assay [2] (Table 3) above 10 µM.
In turn, `C=C(F)C(=O)N1CCN(c2nc(OC[C@@H]3CCCN3CCOCCOCCOCCOCCOCCOCCOCCOCCCCCCCCc3cc(Cl)cc(NC(=O)NCc4ccc5c(c4)CN(C4CCC(=O)NC4=O)C5=O)c3)nc3c2CCN(c2cccc4cccc(Cl)c24)C3)C[C@@H]1CC#N` (stereo partly drawn) [Compound I-38] registered a GI50 in assay [1] below 1 µM. For the same compound, the DC50 in assay [2] (Table 3) was below 0.25 µM.
With `C=C(F)C(=O)N1CCN(c2nc(OC[C@@H]3CCCN3CCCOCCOCCOCCOCCOCCOCCOCCCCCc3cc(Cl)cc(NC(=O)NCc4ccc5c(c4)CN(C4CCC(=O)NC4=O)C5=O)c3)nc3c2CCN(c2cccc4cccc(Cl)c24)C3)C[C@@H]1CC#N` (stereo partly drawn) [Compound I-118], in assay [1], the GI50 lay in the range of 1 to 3 µM. Also, the DC50 in assay [2] (Table 3A) is 0.25 to 5 µM.
`C=C(F)C(=O)N1CCN(c2nc(OC[C@@H]3CCCN3CCCOCCOCCOCCOCCOCCOCCOCCOCCOCCOCCOCCCCCc3ccc(Cl)cc3NC(=O)NCc3ccc4c(c3)CN(C3CCC(=O)NC3=O)C4=O)nc3c2CCN(c2cccc4cccc(Cl)c24)C3)C[C@@H]1CC#N` (stereo partly drawn) [Compound I-138] came in with a GI50 in assay [1] of 3 to 10 µM. The same compound registered a DC50 in assay [2] (Table 3A) of 0.25 to 5 µM.
As for `C=CC(=O)N1CCN(c2nc(NCCOCCOCCOCCOCCOCCOCCOCCOCCOCCOCCc3cc(Cl)cc(NC(=O)NCc4ccc5c(c4)CN(C4CCC(=O)NC4=O)C5=O)c3)nc3c(F)c(-c4cc(O)cc5ccccc45)c(Cl)cc23)CC1` (stereo not drawn) [Compound I-16, 1-[3-chloro-5-[2-[2-[2-[2-[2-[2-[2-[2-[2-[2-[2-[[6-chloro-8-fluoro-7-(3-hydroxy-1-naphthyl)-4-(4-prop-2-enoylpiperazin-1-yl)quinazolin-2-yl]amino]ethoxy]ethoxy]ethoxy]ethoxy]ethoxy]ethoxy]ethoxy]ethoxy]ethoxy]ethoxy]ethyl]phenyl]-3-[[2-(2,6-dioxo-3-piperidyl)-1-oxo-isoindolin-5-yl]methyl]urea], the GI50 in assay [1] was above 10 µM. This compound also yielded a DC50 in assay [2] (Table 3) above 10 µM.
In assay [1], `CN(C/C=C/C(=O)N1CCN(c2nc(OC[C@@H]3CCCN3C)nc3c2CCN(c2cccc4cccc(Cl)c24)C3)C[C@@H]1CC#N)CCOCCOCCOCCOCCOCCCCCc1cc(Cl)cc(NC(=O)NCc2ccc3c(c2)CN(C2CCC(=O)N(C)C2=O)C3=O)c1` (stereo partly drawn) [Compound I-116] registered a GI50 of 1 to 3 µM. Besides, the DC50 in assay [2] (Table 3A) lay in the range of 0.25 to 5 µM.
On the same counts, the results for `C=C(F)C(=O)N1CCN(c2nc(OC[C@@H]3CCCN3CCCOCCOCCOCCOCCOCCOCCOCCOCCOCCOCCOCCCCCc3cccc(NC(=O)NCc4ccc5c(c4)CN(C4CCC(=O)NC4=O)C5=O)n3)nc3c2CCN(c2cccc4cccc(Cl)c24)C3)C[C@@H]1CC#N` (stereo partly drawn) [Compound I-148] are 3 to 10 µM and 0.25 to 5 µM.
`C=C(F)C(=O)N1CCN(c2nc(OC[C@@H]3CCCN3CCOCCOCCOCCOCCOCCOCCOCCOCCOCCOCCOCCOCCCCCCCCCCCCCCc3cc(Cl)cc(NC(=O)NCc4ccc5c(c4)CN(C4CCC(=O)NC4=O)C5=O)c3)nc3c2CCN(c2cccc4cccc(Cl)c24)C3)C[C@@H]1CC#N` (stereo partly drawn) [Compound I-53] gave a GI50 in assay [1] below 1 µM. In assay [2] (Table 3), this compound displayed a DC50 below 0.25 µM.
In assay [1], `C=C(F)C(=O)N1CCN(c2nc(OC[C@@H]3CCCN3CCOCCOCCOCCOCCOCCOCCOCCOCCOCCOCCCCCCCCCCCCCCc3cc(Cl)cc(NC(=O)NCc4ccc5c(c4)CN(C4CCC(=O)NC4=O)C5=O)c3)nc3c2CCN(c2cccc4cccc(Cl)c24)C3)C[C@@H]1CC#N` (stereo partly drawn) [Compound I-52] came in with a GI50 below 1 µM. This compound also gave a DC50 in assay [2] (Table 3) of 0.25 to 5 µM.
`C=C(F)C(=O)N1CCN(c2nc(OC[C@@H]3CCCN3CCOCCOCCOCCOCCCCCCCCCCCCCCc3cc(Cl)cc(NC(=O)NCc4ccc5c(c4)CN(C4CCC(=O)NC4=O)C5=O)c3)nc3c2CCN(c2cccc4cccc(Cl)c24)C3)C[C@@H]1CC#N` (stereo partly drawn) [Compound I-49]: the GI50 in assay [1] is above 10 µM. Also, the DC50 in assay [2] (Table 3) fell in the range of 0.25 to 5 µM.
Consider `C=CC(=O)N1CCN(c2nc(NCCCCCCCCNc3cccc4c3CN(C3CCC(=O)NC3=O)C4=O)nc3c(F)c(-c4cc(O)cc5ccccc45)c(Cl)cc23)CC1` (stereo not drawn) [Compound I-6, 3-(4-((8-((4-(4-acryloylpiperazin-1-yl)-6-chloro-8-fluoro-7-(3-hydroxynaphthalen-1-yl)quinazolin-2-yl)amino)octyl)-amino)-1-oxoisoindolin-2-yl)piperidine-2,6-dione], for which the GI50 in assay [1] was above 10 µM. In addition, in assay [2] (Table 3), the DC50 is above 10 µM.
`C=C(F)C(=O)N1CCN(c2nc(OC[C@@H]3CCCN3CCOCCOCCOCCOCCCCCCCCc3cc(Cl)cc(NC(=O)NCc4ccc5c(c4)CN(C4CCC(=O)NC4=O)C5=O)c3)nc3c2CCN(c2cccc4cccc(Cl)c24)C3)C[C@@H]1CC#N` (stereo partly drawn) [Compound I-40] gave a GI50 in assay [1] below 1 µM. Also, the DC50 in assay [2] (Table 3) is below 0.25 µM.
`C=C(F)C(=O)N1CCN(c2nc(OC[C@@H]3CCCN3CCCOCCOCCOCCOCCOCCOCCOCCCCCc3ccc(Cl)cc3NC(=O)NCc3ccc4c(c3)CN(C3CCC(=O)NC3=O)C4=O)nc3c2CCN(c2cccc4cccc(Cl)c24)C3)C[C@@H]1CC#N` (stereo partly drawn) [Compound I-137]: the 50% growth inhibitory concentration (GI50) in assay [1] was 3 to 10 µM. This compound also gave a DC50 in assay [2] (Table 3A) of 0.25 to 5 µM.
Take `C=C(F)C(=O)N1CCN(c2nc(OC[C@@H]3CCCN3CCOCCOCCOCCOCCOCCCCCc3cc(Cl)cc(NC(=O)NCc4ccc5c(c4)CN(C4CCC(=O)NC4=O)C5=O)c3)nc3c2CCN(c2cccc4cccc(Cl)c24)C3)C[C@@H]1CC#N` (stereo partly drawn) [Compound I-54]: the GI50 in assay [1] was below 1 µM. The DC50 in assay [2] (Table 3) was in the range of 0.25 to 5 µM.
The corresponding values for `C=CC(=O)N1CCN(c2nc(NCCCCCCCCc3cc(Cl)cc(NC(=O)NCc4ccc5c(c4)CN(C4CCC(=O)NC4=O)C5=O)c3)nc3c(F)c(-c4cc(O)cc5ccccc45)c(Cl)cc23)CC1` (stereo not drawn) [Compound I-5, 1-[3-chloro-5-[8-[[6-chloro-8-fluoro-7-(3-hydroxy-1-naphthyl)-4-(4-prop-2-enoylpiperazin-1-yl)quinazolin-2-yl]amino]octyl]phenyl]-3-[[2-(2,6-dioxo-3-piperidyl)-1-oxo-isoindolin-5-yl]methyl]urea] are above 10 µM and below 0.25 µM.
Compound `C=CC(=O)Nc1cc(Nc2nccc(-c3cn(C)c4ccccc34)n2)c(OC)cc1N(C)CCN(C)CCOCCOCCOCCOCCCCCCCCc1cc(Cl)cc(NC(=O)NCc2ccc3c(c2)CN(C2CCC(=O)NC2=O)C3=O)c1` (stereo not drawn) [Compound I-61] yielded a DC50 in assay [2] (Table 3) below 0.25 µM.
Same read-out and setting: the same measure for `C=CC(=O)Nc1cc(Nc2nccc(-c3cn(C)c4ccccc34)n2)c(OC)cc1N(C)CCN(C)CCOCCOCCOCCOCCOCCOCCOc1cc(Cl)cc(NC(=O)NCc2ccc3c(c2)CN(C2CCC(=O)NC2=O)C3=O)c1` (stereo not drawn) [Compound I-33]: 5 to 10 µM; for `C=CC(=O)Nc1cc(Nc2nccc(-c3cn(C)c4ccccc34)n2)c(OC)cc1N(C)CCN(C)CCOCCOCCOCCOCCOCCOCCOCCOCCCCCCCCc1cc(Cl)cc(NC(=O)NCc2ccc3c(c2)CN(C2CCC(=O)NC2=O)C3=O)c1` (stereo not drawn) [Compound I-68]: below 0.25 µM.
The compound `Cc1c(CC(=O)N(C)C)ccc(NC(=O)c2nn([C@H]3CCCN(C(=O)/C=C/CN(C)CCOCCOCCOCCOCCOCCOCCOCCOCCOCCOCCCCCCCCc4cc(Cl)cc(NC(=O)NCc5ccc6c(c5)CN(C5CCC(=O)NC5=O)C6=O)c4)C3)c3ncnc(N)c23)c1C` (stereo partly drawn) [Compound I-66] showed a DC50 in assay [2] (Table 3) of 0.25 to 5 µM.
`CCN(CCOCCOCCOCCOCCOCCOCCCCCCCCc1cc(Cl)cc(NC(=O)NCc2ccc3c(c2)CN(C2CCC(=O)NC2=O)C3=O)c1)CCOc1ccc(C(=O)c2c(-c3ccc(O)cc3)sc3cc(O)ccc23)cc1` (stereo not drawn) [Compound I-55] came in with a DC50 in assay [2] (Table 3) below 0.25 µM.
In the case of `Cc1c(CC(=O)N(C)C)ccc(NC(=O)c2nn([C@@H]3CCCN(C(=O)/C=C/CN(C)CCOCCOCCOCCOCCOCCOCCOCCOCCCCCCCCc4cc(Cl)cc(NC(=O)NCc5ccc6c(c5)CN(C5CCC(=O)NC5=O)C6=O)c4)C3)c3ncnc(N)c23)c1C` (stereo partly drawn) [Compound I-69], the DC50 in assay [2] (Table 3) is below 0.25 µM.
